For the experiment, the system named is HeLa or JURKAT. The experiment can be described thus: Cytotoxicity assay (Alamar Blue) with guanosine rescue. In kind it is cell-based. As to the method:
HeLa cells (DSMZ, ACC 57) and Jurkat cells (DSMZ, ACC 282) in exponential growth phase are exposed for 3 days to test compounds. The number of surviving cells is then determined by the Alamar Blue assay (Serotec Inc.). This assay incorporates a fluorometric growth indicator based on detection of metabolic activity. Specifically, the system incorporates an oxidation-reduction indicator that fluoresces in response to chemical reduction of the growth medium resulting from cell growth. As cells grow in culture, innate metabolic activity results in a chemical reduction of the immediate surrounding environment. Continued growth maintains a reduced environment while inhibition of growth maintains an oxidized environment. […] Fluorescence is monitored at 560 nm (Exc.) and 590 nm Em.
HeLa cells (1×10^3) or JURKAT cells (1×10^3) are plated in 100 μl MEM medium (with Earle's salt; Biochrom KG) containing 10% FBS, 2 mM L-glutamine, and non-essential animo acids in 96-well plates and incubated at 37° C. and 5% CO2 atmosphere. […] The fluorescence is then measured as described above and the LD50 is determined based on a sigmoidal dose response regression. […] Any toxicity still detected can then be ascribed either to other biological effects of the of T-L-C conjugate of mycophenolic acid, or is due to the very high intracellular concentration of mycophenolic acid, following concentrative uptake into the cell.
(The colour change of resazurin is a common sign of viable cells or microbes.)

On to `COc1c(C)c2c(c(O)c1C/C=C(\C)CCC(=O)O)C(=O)OC2` [Mycophenolic acid], for which, where the note is “50 μM guanosine”, the “effect in the presence of guanosine” value is “completely removed”. Also, the IC50 (in general, the concentration needed to halve the response being measured) (normal culture conditions) is under 2000 nM.

These data come from patent US20080145343A1, “Conjugates of biologically active compounds, methods for their preparation and use, formulation and pharmaceutical applications thereof” (priority 2002, published 2008).
